ChEMBL document CHEMBL5331068, “Briarane-type diterpenoids, the inhibitors of osteoclast formation by interrupting Keap1-Nrf2 interaction and activating Nrf2 pathway” (Eur J Med Chem, 2023)
Activity calls are given as the source filed them. The calls are words filed in the database; no cut-off is given here.

What was measured:
BMDM [1] = assay: Anti-osteoclastogenesis activity in C57BL/6 mouse BMDM cells transfected with Nrf2 siRNA assessed as inhibition of RANKL-induced osteoclastogenesis at 10 uM incubated for 5 days in the presence of M-CSF by TRAP-staining based microscopic analysis; assay type: functional, cell-based; details: time 5.0 day
RAW264.7 [2] = assay: Anti-osteoclastogenesis activity in RANKL-induced mouse RAW264.7 cells transfected with Nrf2 siRNA assessed as increase in HO-1 expression level incubated for 3 days by Western blot analysis; assay type: functional, cell-based; details: time 3.0 day
[3] = target: Keap1/Nrf2 (Homo sapiens) (UniProt Q16236+Q14145); assay: Disruption of 16mer biotinylated Nrf2 (unknown origin)-Keap1 kelch domain (unknown origin) protein-protein interaction upto 100 uM by Biolayer Interferometry assay
RAW264.7 [4] = assay: Anti-osteoclastogenesis activity in RANKL-induced mouse RAW264.7 cells transfected with Nrf2 siRNA assessed as increase in NQO-1 expression level incubated for 3 days by Western blot analysis; assay type: functional, cell-based; details: time 3.0 day
Danio rerio = assay: Anti osteoporosis activity in prednisone induced AB Zebrafish model of osteopenia assessed as increase in bone mineralization at 5 to 10 uM administered after 3 days post fertilization and measured after 6 days by Alizarin red staining based analysis; assay type: functional, organism-based; details: dose 5-10 µM, time 6.0 day
[5] = Cytotoxicity against C57BL/6 mouse BMDM cells incubated for 48 hrs by MTT assay; assay type: toxicity, cell-based; details: BMDM cells (bone marrow-derived macrophages)
BMDM [6] = assay: Anti-osteoclastogenesis activity in RANKL-induced C57BL/6 mouse BMDM cells assessed as inhibition of NFATc1 protein level at 5 to 10 uM in the presence of M-CSF by Western blot analysis; assay type: functional, cell-based; details: dose 5-10 µM
[7] = Inhibition of RANKL-induced ERK phosphorylation in C57BL/6 mouse BMDM cells incubated for 60 mins by Western blot analysis; assay type: cell-based
BMDM [8] = assay: Anti-osteoclastogenesis activity in RANKL-induced C57BL/6 mouse BMDM cells assessed as inhibition of c-Fos protein level at 5 to 10 uM in the presence of M-CSF by Western blot analysis; assay type: functional, cell-based; details: dose 5-10 µM
BMDM [9] = assay: Anti-osteoclastogenesis activity in RANKL-induced C57BL/6 mouse BMDM cells assessed as suppression of late stage osteoclast differentiation at 10 uM incubated from day 3 to day 5 in the presence of M-CSF by TRAP-staining based microscopic analysis; assay type: functional, cell-based; details: time 2.0 day
[10] = target: T1, MAP kinase p38 (Mus musculus) (UniProt P47811+O08911+Q9WUI1+Q9Z1B7); assay: Inhibition of RANKL-induced p38 MAPK phosphorylation in C57BL/6 mouse BMDM cells incubated for 60 mins by Western blot analysis; assay type: cell-based
[11] = target: T2, Nuclear factor erythroid 2-related factor 2 (Mus musculus) (UniProt Q60795); assay: Stabilization of Nrf2 in mouse RAW264.7 cells assessed as decrease in Nrf2 ubiquitination at 10 uM incubated for 48 hrs by Western blot based Co-immunoprecipitation analysis; assay type: cell-based
T2 sequence (whole entry): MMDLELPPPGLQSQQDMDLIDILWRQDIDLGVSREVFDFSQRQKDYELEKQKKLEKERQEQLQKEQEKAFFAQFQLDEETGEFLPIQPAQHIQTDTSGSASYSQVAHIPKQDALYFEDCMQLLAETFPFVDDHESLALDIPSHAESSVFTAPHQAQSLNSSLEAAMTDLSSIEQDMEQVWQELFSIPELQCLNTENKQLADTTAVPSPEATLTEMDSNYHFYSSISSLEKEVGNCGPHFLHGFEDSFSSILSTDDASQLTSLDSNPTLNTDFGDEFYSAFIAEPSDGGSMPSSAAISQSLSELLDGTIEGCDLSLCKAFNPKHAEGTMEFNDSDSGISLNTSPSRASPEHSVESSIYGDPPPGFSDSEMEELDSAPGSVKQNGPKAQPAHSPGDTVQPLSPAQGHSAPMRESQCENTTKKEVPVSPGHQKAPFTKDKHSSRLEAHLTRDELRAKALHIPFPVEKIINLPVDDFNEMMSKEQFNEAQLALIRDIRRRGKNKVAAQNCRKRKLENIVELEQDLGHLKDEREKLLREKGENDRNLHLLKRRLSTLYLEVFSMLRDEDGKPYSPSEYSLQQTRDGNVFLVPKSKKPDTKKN

[12] = target: Transcription factor p65 (Mus musculus) (UniProt Q04207); assay: Inhibition of RANKL-induced p65 NF-kappaB phosphorylation in C57BL/6 mouse BMDM cells incubated for 60 mins by Western blot analysis; assay type: cell-based
[13] = target: T2, Nuclear factor erythroid 2-related factor 2 (Mus musculus); assay: Stabilization of Nrf2 in mouse RAW264.7 cells assessed as increase in Nrf2 protein level preincubated with compound for 6 hrs followed by CHX addition and measured after 45 mins by Western blot analysis; assay type: cell-based; details: time 405.0 min
RAW264.7 [14] = assay: Anti-osteoclastogenesis activity in RANKL-induced mouse RAW264.7 cells transfected with Nrf2 siRNA assessed as increase in NFATc1 expression level incubated for 3 days by Western blot analysis; assay type: functional, cell-based; details: time 3.0 day
BMDM [15] = assay: Anti-osteoclastogenesis activity in RANKL-induced C57BL/6 mouse BMDM cells assessed as decrease in bone resorption pit area incubated for 10 days in the presence of M-CSF by inverted microscopic analysis; assay type: functional, cell-based; details: dose 1-10 µM, time 10.0 day
BMDM [16] = assay: Anti-osteoclastogenesis activity in RANKL-induced C57BL/6 mouse BMDM cells assessed as suppression of early stage osteoclast differentiation at 10 uM incubated from day 1 to day 3 in the presence of M-CSF by TRAP-staining based microscopic analysis; assay type: functional, cell-based; details: time 2.0 day
[17] = target: T1, MAP kinase p38 (Mus musculus); assay: Inhibition of RANKL-induced p38 MAPK phosphorylation in C57BL/6 mouse BMDM cells transfected with Nrf2 siRNA at 10 uM incubated for 60 mins by Western blot analysis; assay type: cell-based
BMDM [18] = assay: Anti-osteoclastogenesis activity in RANKL-induced C57BL/6 mouse BMDM cells assessed as decrease in bone resorption pit number incubated for 10 days in the presence of M-CSF by inverted microscopic analysis; assay type: functional, cell-based; details: dose 1-10 µM, time 10.0 day
BMDM [19] = assay: Anti-osteoclastogenesis activity in RANKL-induced C57BL/6 mouse BMDM cells assessed as inhibition of NFATc1 translocation into nuclei incubated for 3 days by DAPI staining based confocal microscopic analysis; assay type: functional, cell-based; details: time 3.0 day
[20] = target: Kelch-like ECH-associated protein 1/Nuclear factor erythroid 2-related factor 2 (Mus musculus) (UniProt Q60795+Q9Z2X8); assay: Disruption of Nrf2 -Keap1 protein-protein interaction in RANKL-induced C57BL/6 mouse BMDM cells incubated for 24 hrs by Western blot based co-immunoprecipitation analysis; assay type: cell-based
BMDM [21] = assay: Anti-osteoclastogenesis activity in RANKL-induced C57BL/6 mouse BMDM cells assessed as inhibition of bone resorption by measuring downregulation of Cathepsin K expression at 5 to 10 uM in the presence of M-CSF by Western blot analysis; assay type: functional, cell-based; details: dose 5-10 µM

Sequence of Keap1/Nrf2 (Homo sapiens) (Q14145 whole entry, looked up, the tested form may be a part): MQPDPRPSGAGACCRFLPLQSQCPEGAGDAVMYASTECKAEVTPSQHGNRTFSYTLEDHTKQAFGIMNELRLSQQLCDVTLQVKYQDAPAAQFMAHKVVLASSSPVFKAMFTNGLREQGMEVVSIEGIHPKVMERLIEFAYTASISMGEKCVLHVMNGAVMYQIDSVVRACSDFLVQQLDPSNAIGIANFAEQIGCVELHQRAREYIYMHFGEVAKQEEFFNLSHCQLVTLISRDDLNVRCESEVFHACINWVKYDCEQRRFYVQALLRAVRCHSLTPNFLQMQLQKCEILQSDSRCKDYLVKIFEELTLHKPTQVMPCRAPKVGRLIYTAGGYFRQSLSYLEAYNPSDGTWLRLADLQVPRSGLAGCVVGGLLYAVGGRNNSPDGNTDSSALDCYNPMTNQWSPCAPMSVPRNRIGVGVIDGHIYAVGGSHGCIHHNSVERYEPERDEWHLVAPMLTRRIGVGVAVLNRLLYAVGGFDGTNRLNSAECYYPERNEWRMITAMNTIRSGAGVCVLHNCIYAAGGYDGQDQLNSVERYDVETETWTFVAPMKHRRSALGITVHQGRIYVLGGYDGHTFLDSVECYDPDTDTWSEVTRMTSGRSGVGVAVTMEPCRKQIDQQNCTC
Sequence of Keap1/Nrf2 (Homo sapiens) (Q16236 whole entry, looked up, the tested form may be a part): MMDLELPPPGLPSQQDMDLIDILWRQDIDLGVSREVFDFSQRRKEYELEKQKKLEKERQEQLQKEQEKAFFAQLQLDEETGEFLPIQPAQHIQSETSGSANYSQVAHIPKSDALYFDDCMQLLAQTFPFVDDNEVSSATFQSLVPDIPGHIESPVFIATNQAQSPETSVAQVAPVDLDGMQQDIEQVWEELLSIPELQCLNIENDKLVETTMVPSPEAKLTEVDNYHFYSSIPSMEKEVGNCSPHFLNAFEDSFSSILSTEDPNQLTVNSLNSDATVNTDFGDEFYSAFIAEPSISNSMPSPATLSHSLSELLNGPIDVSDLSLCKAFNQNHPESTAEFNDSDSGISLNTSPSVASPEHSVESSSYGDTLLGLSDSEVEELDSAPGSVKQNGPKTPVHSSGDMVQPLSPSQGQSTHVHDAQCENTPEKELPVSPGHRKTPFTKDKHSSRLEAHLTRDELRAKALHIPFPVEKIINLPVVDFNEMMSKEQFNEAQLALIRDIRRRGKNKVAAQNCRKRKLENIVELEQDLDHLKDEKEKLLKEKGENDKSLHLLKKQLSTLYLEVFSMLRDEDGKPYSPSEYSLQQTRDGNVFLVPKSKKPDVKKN
Sequence of Kelch-like ECH-associated protein 1/Nuclear factor erythroid 2-related factor 2 (Mus musculus) (Q9Z2X8 whole entry, looked up, one chain of several): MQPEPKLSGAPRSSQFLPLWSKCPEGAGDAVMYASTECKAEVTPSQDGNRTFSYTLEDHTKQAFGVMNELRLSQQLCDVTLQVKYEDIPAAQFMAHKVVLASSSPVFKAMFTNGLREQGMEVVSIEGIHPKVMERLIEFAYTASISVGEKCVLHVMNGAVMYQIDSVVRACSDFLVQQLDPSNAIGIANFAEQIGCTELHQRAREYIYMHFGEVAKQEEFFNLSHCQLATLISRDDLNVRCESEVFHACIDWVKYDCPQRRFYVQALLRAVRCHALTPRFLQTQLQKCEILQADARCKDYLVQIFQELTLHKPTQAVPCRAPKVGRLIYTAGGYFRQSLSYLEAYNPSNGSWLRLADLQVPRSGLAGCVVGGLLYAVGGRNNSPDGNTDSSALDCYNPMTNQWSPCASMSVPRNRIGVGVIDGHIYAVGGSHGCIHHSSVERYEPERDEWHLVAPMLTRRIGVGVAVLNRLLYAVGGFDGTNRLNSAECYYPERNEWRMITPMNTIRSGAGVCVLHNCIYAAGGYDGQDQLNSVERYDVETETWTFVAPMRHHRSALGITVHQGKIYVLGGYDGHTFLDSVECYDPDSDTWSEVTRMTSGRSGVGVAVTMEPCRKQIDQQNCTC
Sequence of Transcription factor p65 (Mus musculus) (Q04207 whole entry): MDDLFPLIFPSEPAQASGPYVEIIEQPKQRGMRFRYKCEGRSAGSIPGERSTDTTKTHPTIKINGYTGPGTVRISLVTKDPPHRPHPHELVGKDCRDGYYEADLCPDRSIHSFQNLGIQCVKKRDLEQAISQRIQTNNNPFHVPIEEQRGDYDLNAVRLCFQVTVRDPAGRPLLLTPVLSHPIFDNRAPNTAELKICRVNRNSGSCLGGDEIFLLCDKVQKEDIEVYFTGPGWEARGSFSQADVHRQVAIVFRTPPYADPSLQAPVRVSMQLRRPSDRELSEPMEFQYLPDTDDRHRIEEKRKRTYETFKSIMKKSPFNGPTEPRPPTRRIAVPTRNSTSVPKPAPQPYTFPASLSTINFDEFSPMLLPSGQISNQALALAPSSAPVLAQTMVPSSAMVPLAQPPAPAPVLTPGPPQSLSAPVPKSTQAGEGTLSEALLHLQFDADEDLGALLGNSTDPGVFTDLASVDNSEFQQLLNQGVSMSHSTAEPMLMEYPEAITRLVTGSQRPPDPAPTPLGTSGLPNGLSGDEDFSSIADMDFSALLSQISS

C=C1[C@H]2O[C@]3([C@@H](C)C(=O)O[C@H]3[C@H]1Cl)[C@@H](OC(C)=O)[C@H]1[C@]3(CC[C@H](OC(C)=O)[C@]1(C)[C@@H](OC(C)=O)[C@@H]2OC(C)=O)CO3
Activity (BMDM [1]): inactive
Activity (RAW264.7 [2]): inactive
Activity [3]: Active
Activity (RAW264.7 [4]): inactive
Activity (Danio rerio): Active
CC50 at 48 h [5]: > 50 µM
Activity (BMDM [6]): Active
inhibition [7]: Active
Activity (BMDM [8]): Active
Activity (BMDM [9]): Active
inhibition [10]: Active
Activity [11]: Active
inhibition [12]: Active
Activity [13]: Active
Activity (RAW264.7 [14]): inactive
Activity (BMDM [15]): Dose-Dependent Effect
Activity (BMDM [16]): Active
inhibition [17]: inactive
Activity (BMDM [18]): Dose-Dependent Effect
Activity (BMDM [19]): Active
Activity [20]: Active
Activity (BMDM [21]): Active
